Bounds are passed on as bounds.

Series [1] has as its target Histone deacetylase 3 (Homo sapiens) (UniProt O15379). The settings on record: at 20 µM.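 Note: recombinant enzyme assay with Boc-Lys(Ac)-AMC substrate, fluorescence read on a microplate reader after 30–60 min incubation.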
Description: Inhibition of human recombinant HDAC3 at 20 uM using Boc-Lys(Ac)-AMC as substrate after 30 to 60 mins by microplate reader assay
The target in series [2] is Histone deacetylase 2 (Homo sapiens) (UniProt Q92769). Conditions: at 20 µM; call rule not given here.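 Note: recombinant enzyme activity measured with the fluorogenic acetylated lysine substrate Boc-Lys(Ac)-AMC, read on a microplate reader after 30–60 min.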
Sequence of Histone deacetylase 2 (Homo sapiens) (Q92769 whole entry): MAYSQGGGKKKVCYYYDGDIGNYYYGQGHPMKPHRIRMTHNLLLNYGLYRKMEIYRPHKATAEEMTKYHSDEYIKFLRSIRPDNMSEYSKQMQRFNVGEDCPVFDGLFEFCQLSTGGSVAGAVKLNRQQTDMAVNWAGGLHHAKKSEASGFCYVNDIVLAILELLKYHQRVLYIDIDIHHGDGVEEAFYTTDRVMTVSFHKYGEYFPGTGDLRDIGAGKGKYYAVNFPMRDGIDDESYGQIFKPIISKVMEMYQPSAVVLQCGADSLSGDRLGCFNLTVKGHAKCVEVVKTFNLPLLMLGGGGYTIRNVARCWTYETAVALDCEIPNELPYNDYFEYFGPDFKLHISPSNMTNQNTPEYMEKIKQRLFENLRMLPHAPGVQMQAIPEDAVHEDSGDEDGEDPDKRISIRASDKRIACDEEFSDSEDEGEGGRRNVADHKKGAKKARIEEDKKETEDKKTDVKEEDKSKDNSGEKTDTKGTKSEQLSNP
The nature of series [3]: Cytotoxicity against human MV411 cells assessed as growth inhibition after 24 hrs by MTS assay. Type of series: functional, cell-based, MV4-11. Background: Tetrazolium dyes change colour on reduction, which living cells bring about.
Series [4] deals with T1, Histone deacetylase (Homo sapiens) (UniProt Q13547+O15379+Q9UBN7+Q92769+Q9UQL6+Q8WUI4+Q9BY41+Q96DB2+P56524+Q9UKV0+Q969S8). Kind of series: Inhibition of HDAC in human MV411 cells assessed as increase in H3K9 aceylation after 4 hrs by western blot analysis. The settings on record: MV4-11. It counts as cell-based.
Series [5] in a line: Lipophilicity, LogP of the compound. Type of series: physicochemical. Conditions: octanol/water.
Series [6] can be described thus: Binding affinity to Zn2+ assessed as Zn2+/compound complex formation by ITC analysis.
Series [7] addresses T1, Histone deacetylase (Homo sapiens). Kind of series: Inhibition of HDAC in human MV411 cells assessed as up regulation of p21 WAF1/CIP1 expression after 4 hrs by western blot analysis. It counts as cell-based. Conditions: MV4-11. In general terms: Immunoblotting shows a protein as a band on a membrane.
The mark [8] stands for this setting: Homo sapiens, MV4-11, 24 h, read-out: IC50.

Sequence of Histone deacetylase 3 (Homo sapiens) (O15379 whole entry): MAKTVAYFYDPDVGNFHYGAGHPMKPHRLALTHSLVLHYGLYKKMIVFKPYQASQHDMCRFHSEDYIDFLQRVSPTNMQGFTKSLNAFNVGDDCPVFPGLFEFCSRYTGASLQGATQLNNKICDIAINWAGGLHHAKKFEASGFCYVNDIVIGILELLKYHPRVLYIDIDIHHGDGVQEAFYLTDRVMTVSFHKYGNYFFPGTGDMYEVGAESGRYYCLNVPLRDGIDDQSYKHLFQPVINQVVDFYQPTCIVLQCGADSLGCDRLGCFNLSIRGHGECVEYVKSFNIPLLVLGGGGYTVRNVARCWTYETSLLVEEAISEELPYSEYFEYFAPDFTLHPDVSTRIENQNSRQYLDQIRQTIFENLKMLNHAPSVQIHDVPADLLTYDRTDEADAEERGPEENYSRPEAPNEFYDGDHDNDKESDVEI

For the compound `O=C(NCCCCNC(=S)NCCC(c1ccccc1)c1ccccc1)c1coc(-c2ccccc2O)n1`, the inhibition (as a rule, the percentage by which the read-out fell short of the control) came out at 3.7% in series [1] and 1.3% in series [2].
Taken in the same sequence, the figures for `COC(=O)c1coc(-c2ccccc2O)n1` were 39.1% and 30.1%.
Turning to `O=C(NO)C(c1ccccc1)c1ccccc1`, in series [1], the inhibition came to 76.4%.
On to `O=C(Nc1ccccc1)c1coc(-c2ccccc2O)n1`, for which the IC50 (in general, the concentration that gives 50% inhibition) in series [3] (setting [8]) worked out at 25 µM. For the same compound, the inhibition in series [1] came to 22.5%; in series [2], 29.5%.
In the case of `O=C(NCCCCNC(=O)C(c1ccccc1)c1ccccc1)c1coc(-c2ccccc2O)n1`, the figures for the inhibition in series [1] and in series [2] were 4% and 0%, respectively.
`CC(/C=C/C(=O)NO)=C\[C@@H](C)C(=O)c1ccc(N(C)C)cc1`: the inhibition in series [2] amounted to 99.2%.
On to `O=C(NCCCCNCCC(c1ccccc1)c1ccccc1)c1coc(-c2ccccc2O)n1`, for which the inhibition in series [1] was 18.1%; in series [2], 19.7%.
For `O=C(NCC(c1ccccc1)c1ccccc1)c1coc(-c2ccccc2O)n1`, in series [3] (setting [8]), the IC50 was 40 µM. Further, the inhibition in series [1] came out at 23.7%; in series [2], 34.8%.
Taken in the same sequence, the figures for `O=C(NCc1ccc(-c2ccccc2)cc1)c1coc(-c2ccccc2O)n1` were over 100 µM, 40.1% and 52.2%.
For the compound `O=C(NCCCCN1C(=O)c2ccccc2C1=O)c1coc(-c2ccccc2O)n1`, the inhibition was determined as 11% in series [1] and 25.4% in series [2].
Taken in the same sequence, the figures for `O=C(Nc1ccccc1)c1ccc(CNC(=O)c2coc(-c3ccccc3O)n2)cc1` were 15.8% and 41.3%.
Taken in the same sequence, the figures for `O=C(NCc1cccc2ccccc12)c1coc(-c2ccccc2O)n1` were 32.3% and 45.2%.
Take `O=C(NCCc1c[nH]c2ccccc12)c1coc(-c2ccccc2O)n1`: the figures for the inhibition in series [1] and in series [2] were 18.9% and 36%, respectively.
On to `O=C(Nc1ccc(-c2ccccc2)cc1)c1coc(-c2ccccc2O)n1`, for which the IC50 result in series [3] (mv4-11) is “Not Active”. In addition, the inhibition in series [1] worked out at 30.2%; in series [2], 31.9%.
Taken in the same sequence, the figures for `O=C(NCCC(c1ccccc1)c1ccccc1)c1coc(-c2ccccc2O)n1` were “Not Active”, 37.5% and 28.7%.
Regarding `O=C(CNC(=O)c1coc(-c2ccccc2O)n1)Nc1ccccc1`, the inhibition in series [1] came out at 36.9%; in series [2], 32%.
Taken in the same sequence, the figures for `O=C(O)c1ccc(CNC(=O)c2coc(-c3ccccc3O)n2)cc1` were 39.7% and 56.5%.
On to `O=C(NC(c1ccccc1)c1ccccc1)c1coc(-c2ccccc2O)n1`, for which the IC50 in series [3] (setting [8]) amounted to 7.5 µM. The inhibition was 37.8% in series [1], 54.1% in series [2], “Dose-dependent effect” in series [4] and “Dose-dependent effect” in series [7]. Further, the logP (in general, the decadic logarithm of the partition coefficient of the neutral form, usually between octanol and water) in series [5] was 3.91. Moreover, the Kd (usually the equilibrium constant for the complex coming apart) in series [6] is 0.203 µM.
On to `O=C(O)c1coc(-c2ccccc2O)n1`, for which the results for the inhibition in series [1] and in series [2] were 38.7% and 54.8%, respectively.

Source of the values: ChEMBL document CHEMBL3734759, “Discovery of a new class of histone deacetylase inhibitors with a novel zinc binding group” (Medchemcomm, 2015).
